Measured values reported in US20240174684A1, “INHIBITORS OF cGAS ACTIVITY AS THERAPEUTIC AGENTS” (BELLBROOK LABS, LLC, priority 2021, published 2024).
Where two headings read alike, the source gives them in different places.

Key:
[1] = tested on: IFNβ production in THP-1 cells; test: IFNβ ELISA in THP-1 cells; type: cell-based, human; settings: Homo sapiens; THP-1 cells
Description: Cellular assays: The human monocyte cell line THP-1 and human primary PBMCs were used to evaluate the cellular activity of compounds with good biochemical potency. These cells produce a robust cGAS/STING-dependent type I IFN response when stimulated with dsDNA and other pathogen-associated molecular patterns, which was detected using a standard ELISA for IFNβ (R&D Systems). The TBK1 inhibitor, BX-795, which acts downstream of cGAS/STING, was used as a probe.
CETSA was also used to confirm that the compounds are binding to cGAS in cells; THP-1 cells are used for this analysis. Compounds were tested in dose response mode by incubating with cells for 1.5 hours at 37° C., followed by pelleting and re-suspending in PBS, heating to 51.5° C. for 3 min and cooling to room temp. Cells were then lysed, debris, including denatured cGAS, was pelleted and the supernatant was analyzed for soluble cGAS by Western Blot using anti-cGAS primary Ab (Cell Signaling). Band intensity was analyzed using Image J software. Stimulation with cGAMP directly activates STING, circumventing cGAS; this was used to determine if compounds had effects on downstream components of cGAS/STING signaling. The IFN-6 ELISA was used as the primary measure of cellular potency and selectivity (Table 3) and used the reporter gene assays for assessing off-target activity with other pattern recognition receptors.
The ICso values for IFNB ELISA stimulated with THP-1, PBMC, DNA, and cGAMP were determined for several exemplary compounds of the invention, and are provided in Table 3 where A represents <1 μM; B represents 1-2.5 μM; C represents 2.5-10 μM; D represents 10-20 μM; and E represents >20 μM.

[2] = tested on: MDCK cells expressing human MDR1 (P-glycoprotein); test: MDCK-MDR1 permeability A→B; type: in vitro ADME, Canine
Experimental: ADME studies: Compound A and the compounds of the disclosure were tested for aqueous solubility (KSOL), metabolic stability (human and mouse […]) and permeability (Caco-2 and/or MDR1-MDCK cells) to provide an initial indication of oral bioavailability.
The favorable physicochemical properties are reflected in promising results in in vitro ADME tests. […] Metabolic stability, which was routinely measured with mouse and human hepatocytes, is outstanding, with t, greater than 2 hours for all of the compounds of the disclosure in which it has been measured. Cell permeability was measured using MDCK cells expressing human MDR1 (P-glycoprotein) to assess passive permeability as well as active transport out of the cell. […] Numerous compounds in Table 1 meet these permeability criteria, which is consistent with their design for TPSA <140 Å^2 and increased lipophilicity.
The MDCK-MDR1 permeability A ->B is shown in Table 2 below, where A represents 5-10 cm/s×10^−6; B represents 1-5 cm/s×10^−6; and C represents <1 cm/ss×10^−6. The metabolic stability half time, in both mouse and human hepatocytes, is also shown in Table 2 below, where A′ represents 100-200 minutes; B′ represents 200-300 minutes; and C′ represents >300 minutes.

cGAS = cGAS (Homo sapiens, UniProt Q8N884); test: Transcreener cGAS enzymatic assay (FP); type: biochemical
Experimental: Structural, biochemical and biophysical analysis and selectivity profiling: Potency and MOA studies, including Mn^2+ sensitivity, were performed using the Transcreener cGAS enzymatic assay, which is manufactured at BellBrook Labs (Fitchburg, Wisconsin, USA). This homogenous cGAS enzymatic assay was developed with fluorescence polarization (FP) and time-resolved Forster resonance energy transfer (TR-FRET) readouts, as described in International Patent Publication WO 2020/142729, incorporated by reference herein in its entirety. Plates are read on a PHERAstar FSX multimode reader (BMG). The compounds of the disclosure were tested for inhibition of cGAS ([…]) using this cGAS enzymatic assay under standard conditions (100 μM ATP and GTP, 62.5 nM bp ISD, 60 minute reactions), high ATP and GTP (1 mM) to mimic physiological conditions, in the presence of 200 μM MnCl2, and with mouse cGAS under standard conditions.
The IC50 values for FP under standard and under physiological conditions were determined for several exemplary compounds of the invention. The relative activities for FP Standard IC50 are shown in Table 2 below, where A represents <50 nM; B represents 50-100 nM; C represents 100-200 nM; D represents 200 nM-1μM; and E represents 1-10 μM. For the relative activities for FP Physiological IC50, A′ represents <200 nM; B′ represents 200-500 nM; C′ represents 500 nM-1μM; D′ represents 1-5 μM; and E′ represents >5 μM.

[3] = high ATP and GTP (1 mM) to mimic physiological conditions, read-out: IC50 FP Physiological
[4] = standard conditions: 100 μM ATP and GTP, 62.5 nM bp ISD, 60 minute reactions, read-out: IC50 FP Standard

cGAS, sequence (Q8N884 whole entry): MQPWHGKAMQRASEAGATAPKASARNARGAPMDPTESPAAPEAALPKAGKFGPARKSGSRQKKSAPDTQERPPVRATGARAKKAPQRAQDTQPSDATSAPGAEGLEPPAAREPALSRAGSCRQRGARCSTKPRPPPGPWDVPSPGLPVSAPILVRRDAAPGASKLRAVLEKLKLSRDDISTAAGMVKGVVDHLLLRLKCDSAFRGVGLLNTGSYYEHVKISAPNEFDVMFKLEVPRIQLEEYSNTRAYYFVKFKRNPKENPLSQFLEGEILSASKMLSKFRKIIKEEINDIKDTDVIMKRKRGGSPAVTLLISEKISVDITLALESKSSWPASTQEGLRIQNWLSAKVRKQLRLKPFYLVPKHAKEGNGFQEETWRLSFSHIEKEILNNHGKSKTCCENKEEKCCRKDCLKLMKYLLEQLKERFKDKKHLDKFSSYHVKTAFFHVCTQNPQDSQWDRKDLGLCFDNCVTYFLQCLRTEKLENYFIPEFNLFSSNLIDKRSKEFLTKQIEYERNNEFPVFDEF

| IC50 [1] [µM] | MDCK-MDR Permeability A→B [2] | IC50 (cGAS; [3]) [µM] | IC50 (cGAS; [4]) [µM] | Compound |
| --- | --- | --- | --- | --- |
|  |  | 1 to 5 | 0.1 to 0.2 | Cc1nc(N2C[C@@H](CC(=O)Nc3ccc(-c4ccc(O)nc4)cc3)C[C@H]2C(=O)O)c2oc3ccccc3c2n1 [Compound 47, (28.4R)-4-(2-((4-(6-hydroxypyridin-3-yl)phenyl)amino)-2-oxoethyl)-1-(2-methylbenzofuro[3,2-d]pyrimidin-4-yl)pyrrolidine-2-carboxylic acid] |
|  |  | 0.5 to 1 | < 0.05 | Cc1nc(N2C[C@@H](CC(=O)Nc3ccc(-c4ccnc(O)c4)cc3)C[C@H]2C(=O)O)c2oc3ccccc3c2n1 [Compound 48, (2S,4R)-4-(2-((4-(2-hydroxypyridin-4-yl)phenyl)amino)-2-oxoethyl)-1-(2-methylbenzofuro[3,2-d]pyrimidin-4-yl)pyrrolidine-2-carboxylic acid] |
| > 20 |  | 0.5 to 1 | 0.1 to 0.2 | Cc1nc(N2C[C@@H](CC(=O)Nc3cccc(-c4c[nH]cn4)c3)C[C@H]2C(=O)O)c2oc3ccccc3c2n1 [Compound 49, (28,4R)-4-(2-((3-(1H-imidazol-4-yl)phenyl)amino)-2-oxoethyl)-1-(2-methylbenzofuro[3,2-d]pyrimidin-4-yl)pyrrolidine-2-carboxylic acid] |
|  |  | 1 to 5 | 0.1 to 0.2 | Cc1nc(N2C[C@@H](CC(=O)Nc3ccc(N4CCOC4=O)cc3)C[C@H]2C(=O)O)c2oc3ccccc3c2n1 [Compound 52, (2S,4R)-1-(2-methylbenzofuro[3,2-d]pyrimidin-4-yl)-4-(2-oxo-2-((4-(2-oxooxazolidin-3-yl)phenyl)amino)ethyl)pyrrolidine-2-carboxylic acid] |
| > 20 |  | 1 to 5 | 0.2 to 1 | Cc1nc(N2C[C@@H](CC(=O)Nc3ccc(N4CCC(O)CC4)cc3)C[C@H]2C(=O)O)c2oc3ccccc3c2n1 [Compound 53, (2S,4R)-4-(2-((4-(4-hydroxypiperidin-1-yl)phenyl)amino)-2-oxoethyl)-1-(2-methylbenzofuro[3,2-d]pyrimidin-4-yl)pyrrolidine-2-carboxylic acid] |
|  |  | 0.5 to 1 | < 0.05 | Cc1nc(N2C[C@@H](CC(=O)Nc3ccc(-c4cccc(CO)c4)cc3)C[C@H]2C(=O)O)c2oc3ccccc3c2n1 [Compound 59, (2S,4R)-4-(2-((3′-(hydroxymethyl)-[1,1′-biphenyl]-4-yl)amino)-2-oxoethyl)-1-(2-methylbenzofuro[3,2-d]pyrimidin-4-yl)pyrrolidine-2-carboxylic acid] |
|  |  | 0.2 to 0.5 | < 0.05 | Cc1nc(N2C[C@@H](CC(=O)Nc3ccc(-c4ccc(CO)cc4)cc3)C[C@H]2C(=O)O)c2oc3ccccc3c2n1 [Compound 60, (28.4R)-4-(2-((4′-(hydroxymethyl)-[1,1′-biphenyl]-4-yl)amino)-2-oxoethyl)-1-(2-methylbenzofuro[3,2-d]pyrimidin-4-yl)pyrrolidine-2-carboxylic acid] |
|  |  | 1 to 5 | 0.2 to 1 | Cc1nc(N2C[C@@H](CC(=O)Nc3ccc(-c4ccccc4)nn3)C[C@H]2C(=O)O)c2oc3ccccc3c2n1 [Compound 64, (2S,4R)-1-(2-methylbenzofuro[3,2-d]pyrimidin-4-yl)-4-(2-oxo-2-((6-phenylpyridazin-3-yl)amino)ethyl)pyrrolidine-2-carboxylic acid] |
|  |  | 0.5 to 1 | 0.05 to 0.1 | Cc1nc(N2C[C@@H](CC(=O)Nc3cnc(-c4ccccc4)nc3)C[C@H]2C(=O)O)c2oc3ccccc3c2n1 [Compound 65, (2S,4R)-1-(2-methylbenzofuro[3,2-d]pyrimidin-4-yl)-4-(2-oxo-2-((2-phenylpyrimidin-5-yl)amino)ethyl)pyrrolidine-2-carboxylic acid] |

Second part, the molecule before the results:

| Compound | IC50 [1] [µM] | MDCK-MDR Permeability A→B [2] | IC50 (cGAS; [3]) [µM] | IC50 (cGAS; [4]) [µM] |
| --- | --- | --- | --- | --- |
| Cc1nc(N2C[C@@H](CC(=O)Nc3ccc(N4CCNCC4)cc3)C[C@H]2C(=O)O)c2oc3ccccc3c2n1 [Compound 8, (2S,4R)-1-(2-methylbenzofuro[3,2-d]pyrimidin-4-yl)-4-(2-oxo-2-((4-(piperazin-1-yl)phenyl)amino)ethyl)pyrrolidine-2-carboxylic acid] | > 20 | C (C represents <1 cm/ss×10^−6) | > 5 | 1 to 10 |
| Cc1nc(N2C[C@@H](CC(=O)Nc3ccc(N4CCN(C)CC4)cc3)C[C@H]2C(=O)O)c2oc3ccccc3c2n1 [Compound 9, (2S,4R)-1-(2-methylbenzofuro[3,2-d]pyrimidin-4-yl)-4-(2-((4-(4-methylpiperazin-1-yl)phenyl)amino)-2-oxoethyl)pyrrolidine-2-carboxylic acid] | > 20 | C (C represents <1 cm/ss×10^−6) | > 5 | 1 to 10 |
| Cc1nc(N2C[C@@H](CC(=O)Nc3ccc(-c4cn[nH]c4)cc3)C[C@H]2C(=O)O)c2oc3ccccc3c2n1 [Compound 10, (2S,4R)-4-(2-((4-(1H-pyrazol-4-yl)phenyl)amino)-2-oxoethyl)-1-(2-methylbenzofuro[3,2-d]pyrimidin-4-yl)pyrrolidine-2-carboxylic acid] | > 20 | C (C represents <1 cm/ss×10^−6) | 0.2 to 0.5 | < 0.05 |
| Cc1nc(N2C[C@@H](CC(=O)Nc3cccc(-c4cn[nH]c4)c3)C[C@H]2C(=O)O)c2oc3ccccc3c2n1 [Compound 11, (25,4R)-4-(2-((3-(1H-pyrazol-4-yl)phenyl)amino)-2-oxoethyl)-1-(2-methylbenzofuro[3,2-d]pyrimidin-4-yl)pyrrolidine-2-carboxylic acid] | > 20 | C (C represents <1 cm/ss×10^−6) | 0.2 to 0.5 | 0.05 to 0.1 |
| COc1cccc(NC(=O)C[C@H]2C[C@@H](C(=O)O)N(c3nc(C)nc4c3oc3ccccc34)C2)c1 [Compound 13, (2S,4R)-4-(2-((3-methoxyphenyl)amino)-2-oxoethyl)-1-(2-methylbenzofuro[3,2-d]pyrimidin-4-yl)pyrrolidine-2-carboxylic acid] | 10 to 20 | C (C represents <1 cm/ss×10^−6) | 1 to 5 | 0.2 to 1 |
| COc1ccccc1NC(=O)C[C@H]1C[C@@H](C(=O)O)N(c2nc(C)nc3c2oc2ccccc23)C1 [Compound 14, (28.4R)-4-(2-((2-methoxyphenyl)amino)-2-oxoethyl)-1-(2-methylbenzofuro[3,2-d]pyrimidin-4-yl)pyrrolidine-2-carboxylic acid] | > 20 | C (C represents <1 cm/ss×10^−6) | > 5 | 1 to 10 |
| Cc1nc(N2C[C@@H](CC(=O)Nc3ccccc3C)C[C@H]2C(=O)O)c2oc3ccccc3c2n1 [Compound 17, (2S,4R)-1-(2-methylbenzofuro[3,2-d]pyrimidin-4-yl)-4-(2-oxo-2-(o-tolylamino)ethyl)pyrrolidine-2-carboxylic acid] | > 20 | C (C represents <1 cm/ss×10^−6) | > 5 | 0.2 to 1 |
